# Results reported in US20190343908A1, “Therapeutic Combination for the Treatment of Cancer” (Nerium Biotechnology Inc., priority 2011, published 2019).
# Tests used:
# HT55 (colorectal cancer) = assay: Crystal Violet viability assay, HT55; format: cell-based, human; design: key: absorbance at 570 nm (crystal violet), background wavelength subtracted
# From the text: (§1) Three different viability assays were chosen to complement each other and yielded results dependent on concentration and cell line: the Methyl Tetrazolium dye assay, the Sulforhodamine B fluorescent dye assay, and the Crystal Violet dye assay.
# The Sulforhodamine B and Crystal Violet assays provide information about protein and were used to complement the Methyl-Tetrazolium dye assay. […] It is used for the quantification of cellular proteins of cultured cells. The assay using Crystal Violet, a dye that binds electrostatically to proteins and stains DNA, provides a reliable, simple assay for measuring viability of cells.
# (§2) The Methyl Tetrazolium, Sulforhodamine B, and Crystal Violet assays were used to assess cell viabilities. The incubation times were 24 hours, 48 hours, and 72 hours. The Nerium oleander extract Anvirzel™ (a hot water extract of oleander obtained from Salud Integral, Honduras) was tested in concentrations ranging from 0.01 ng/mL to 10 ng/mL.
# (§3) Cells were detached by trypsinization (Trypsin-0.25% EDTA, Invitrogen, 25200-072) during the logarithmic phase of culture growth and plated in 96-well plates (18.000 cells/well) (Corning, Costar 359) in a final volume of 200 μl of medium per well. […] The absorbance was measured after 24 hours, 48 hours, and 72 hours of incubation.
# For the Crystal Violet assay, the medium was removed from the 96-well plates, the plates rinsed with PBS (Sigma, P3813) and then the cells were […] by the addition of 10% formalin (MERCK, 1.04003.2500) for 20 minutes at RT. Formalin was removed and 0.25% aqueous crystal violet (Sigma, HT901), dissolved in water, was added for 10 minutes at RT. Unbound Crystal Violet was rinsed by washing with water and finally 33% acetic acid was added to dissolve the dye.
# (§4) The optical density of each plate was measured on a μQuant spectrophotometer and the data were analyzed with Gen5 software (μQuant Biomolecular Spectrophotometer MQX200 and Gen5™ Microplate Data Collection & Analysis software, BioTek® Instruments. Inc, April 2008). Absorbance was measured at 570 nm for all assays and a second wavelength was measured in order to subtract noise. For the Methyl-Tetrazolium assay this second wavelength was 630 nm and for the Sulforhodamine B and Crystal Violet assays it was 690 nm.
# [1] = system: HCT-15 (colorectal cancer); assay: Methyl-Tetrazolium viability assay, HCT-15; format: cell-based, human; design: key to MTT Average: absorbance (optical density) at 570 nm, second wavelength subtracted; conditions: for MTT Average 24 h / MTT Average 48 h / MTT Average 72 h: HCT-15, Run 1
# From the text: as §1
# The Methyl-Tetrazolium dye assay measures the activity of enzymes in mitochondria. The dye precursor is taken up by cells, where it undergoes reduction to the purple formazan. It measures only the mitochondrial activity and, thus, it is not always a reliable indication of whether the cells themselves are alive or dead, since even a recently dead cell has […] enzyme activity in mitochondria. Intracellular glucose concentration, pH, and time before assay all affect the measurements.
# as §2, §3
# For the Methyl-Tetrazolium assay, the dye (Sigma, M2128; 5 mg/mL, diluted in phosphate-buffered saline) was added to each well and plates were incubated for 3 hours at 37° C. After the end of the incubation period, the medium was discarded and the cells were rinsed with phosphate-buffered saline. Finally, the formazan crystals were dissolved in dimethylsulphoxide (Sigma, D4540).
# as §4
smiles,measurement,setting,value
N.N.[Cl][Pt][Cl] [cisplatin],CVE Average,"HT55 (colorectal cancer); HT55, Run 1, 24 h, 0.1 μg/ml CDDP",0.838
same,CVE Average,"HT55 (colorectal cancer); HT55, Run 1, 24 h, 1 μg/ml CDDP",0.557
same,CVE Average,"HT55 (colorectal cancer); HT55, Run 1, 24 h, 10 μg/ml CDDP",0.728
same,CVE Average,"HT55 (colorectal cancer); HT55, Run 1, 24 h, 100 μg/ml CDDP",0.383
same,CVE Average,"HT55 (colorectal cancer); HT55, Run 1, 48 h, 0.1 μg/ml CDDP",0.588
same,CVE Average,"HT55 (colorectal cancer); HT55, Run 1, 48 h, 1 μg/ml CDDP",0.314
same,CVE Average,"HT55 (colorectal cancer); HT55, Run 1, 48 h, 10 μg/ml CDDP",0.405
same,CVE Average,"HT55 (colorectal cancer); HT55, Run 1, 48 h, 100 μg/ml CDDP",0.269
same,CVE Average,"HT55 (colorectal cancer); HT55, Run 1, 72 h, 0.1 μg/ml CDDP",0.901
same,CVE Average,"HT55 (colorectal cancer); HT55, Run 1, 72 h, 1 μg/ml CDDP",0.437
same,CVE Average,"HT55 (colorectal cancer); HT55, Run 1, 72 h, 10 μg/ml CDDP",0.436
same,CVE Average,"HT55 (colorectal cancer); HT55, Run 1, 72 h, 100 μg/ml CDDP",0.243
same,CVE Average,"HT55 (colorectal cancer); HT55 Run 2, 24 h, 0.1 μg/ml CDDP",1.745
same,CVE Average,"HT55 (colorectal cancer); HT55 Run 2, 24 h, 1 μg/ml CDDP",0.942
same,CVE Average,"HT55 (colorectal cancer); HT55 Run 2, 24 h, 10 μg/ml CDDP",1.075
same,CVE Average,"HT55 (colorectal cancer); HT55 Run 2, 24 h, 100 μg/ml CDDP",0.758
same,CVE Average,"HT55 (colorectal cancer); HT55 Run 2, 48 h, 0.1 μg/ml CDDP",0.793
same,CVE Average,"HT55 (colorectal cancer); HT55 Run 2, 48 h, 1 μg/ml CDDP",0.23
same,CVE Average,"HT55 (colorectal cancer); HT55 Run 2, 48 h, 10 μg/ml CDDP",0.281
same,CVE Average,"HT55 (colorectal cancer); HT55 Run 2, 48 h, 100 μg/ml CDDP",0.286
same,CVE Average,"HT55 (colorectal cancer); HT55 Run 2, 72 h, 0.1 μg/ml CDDP",0.937
same,CVE Average,"HT55 (colorectal cancer); HT55 Run 2, 72 h, 1 μg/ml CDDP",0.395
same,CVE Average,"HT55 (colorectal cancer); HT55 Run 2, 72 h, 10 μg/ml CDDP",0.326
same,CVE Average,"HT55 (colorectal cancer); HT55 Run 2, 72 h, 100 μg/ml CDDP",0.244
same,CVE Average,"HT55 (colorectal cancer); HT55 Run 3, 24 h, 0.1 μg/ml CDDP",0.591
same,CVE Average,"HT55 (colorectal cancer); HT55 Run 3, 24 h, 1 μg/ml CDDP",0.201
same,CVE Average,"HT55 (colorectal cancer); HT55 Run 3, 24 h, 10 μg/ml CDDP",0.812
same,CVE Average,"HT55 (colorectal cancer); HT55 Run 3, 24 h, 100 μg/ml CDDP",0.15
same,CVE Average,"HT55 (colorectal cancer); HT55 Run 3, 48 h, 0.1 μg/ml CDDP",1.099
same,CVE Average,"HT55 (colorectal cancer); HT55 Run 3, 48 h, 1 μg/ml CDDP",0.561
same,CVE Average,"HT55 (colorectal cancer); HT55 Run 3, 48 h, 10 μg/ml CDDP",1.712
same,CVE Average,"HT55 (colorectal cancer); HT55 Run 3, 48 h, 100 μg/ml CDDP",0.285
same,CVE Average,"HT55 (colorectal cancer); HT55 Run 3, 72 h, 0.1 μg/ml CDDP",1.228
same,CVE Average,"HT55 (colorectal cancer); HT55 Run 3, 72 h, 1 μg/ml CDDP",0.577
same,CVE Average,"HT55 (colorectal cancer); HT55 Run 3, 72 h, 10 μg/ml CDDP",2.329
same,CVE Average,"HT55 (colorectal cancer); HT55 Run 3, 72 h, 100 μg/ml CDDP",0.431
same,MTT Average 24 h,[1]; 0.1 μg/ml CDDP,0.218
same,MTT Average 48 h,[1]; 0.1 μg/ml CDDP,0.324
same,MTT Average 72 h,[1]; 0.1 μg/ml CDDP,0.464
same,MTT Average 24 h,[1]; 1 μg/ml CDDP,0.032
same,MTT Average 48 h,[1]; 1 μg/ml CDDP,0.032
same,MTT Average 72 h,[1]; 1 μg/ml CDDP,0.025
same,MTT Average 24 h,[1]; 10 μg/ml CDDP,0.1
same,MTT Average 48 h,[1]; 10 μg/ml CDDP,0.046
same,MTT Average 72 h,[1]; 10 μg/ml CDDP,0.03
same,MTT Average 24 h,[1]; 100 μg/ml CDDP,0.034
same,MTT Average 48 h,[1]; 100 μg/ml CDDP,0.023
same,MTT Average 72 h,[1]; 100 μg/ml CDDP,0.017
same,MTT Average,"[1]; Run 2, 24 h, 0.1 μg/ml CDDP",0.141
same,MTT Average,"[1]; Run 2, 24 h, 1 μg/ml CDDP",0.03
same,MTT Average,"[1]; Run 2, 24 h, 10 μg/ml CDDP",0.094
same,MTT Average,"[1]; Run 2, 24 h, 100 μg/ml CDDP",0.025
same,MTT Average,"[1]; Run 2, 48 h, 0.1 μg/ml CDDP",0.233
same,MTT Average,"[1]; Run 2, 48 h, 1 μg/ml CDDP",0.031
same,MTT Average,"[1]; Run 2, 48 h, 10 μg/ml CDDP",0.067
same,MTT Average,"[1]; Run 2, 48 h, 100 μg/ml CDDP",0.014
same,MTT Average,"[1]; Run 2, 72 h, 0.1 μg/ml CDDP",0.214
same,MTT Average,"[1]; Run 2, 72 h, 1 μg/ml CDDP",0.016
same,MTT Average,"[1]; Run 2, 72 h, 10 μg/ml CDDP",0.041
same,MTT Average,"[1]; Run 2, 72 h, 100 μg/ml CDDP",0.01
same,MTT Average,"[1]; Run 3, 24 h, 0.1 μg/ml CDDP",0.294
same,MTT Average,"[1]; Run 3, 24 h, 1 μg/ml CDDP",0.028
same,MTT Average,"[1]; Run 3, 24 h, 10 μg/ml CDDP",0.137
same,MTT Average,"[1]; Run 3, 24 h, 100 μg/ml CDDP",0.039
same,MTT Average,"[1]; Run 3, 48 h, 0.1 μg/ml CDDP",0.391
same,MTT Average,"[1]; Run 3, 48 h, 1 μg/ml CDDP",0.035
same,MTT Average,"[1]; Run 3, 48 h, 10 μg/ml CDDP",0.104
same,MTT Average,"[1]; Run 3, 48 h, 100 μg/ml CDDP",0.026
same,MTT Average,"[1]; Run 3, 72 h, 0.1 μg/ml CDDP",0.457
same,MTT Average,"[1]; Run 3, 72 h, 1 μg/ml CDDP",0.039
same,MTT Average,"[1]; Run 3, 72 h, 10 μg/ml CDDP",0.043
same,MTT Average,"[1]; Run 3, 72 h, 100 μg/ml CDDP",0.017
